Reference: patent US10030006B2, “Coumarin based Hsp90 inhibitors with urea and ether substituents” (University of Kansas, priority 2013, dated 2018)
Where two headings read alike, the source gives them in different places.

Experiments:
Type in all cases: cell-based
[1] = system: MCF-7 (estrogen receptor positive breast cancer cells); assay: Anti-proliferation assay (MTS/PMS, 72 h), MCF-7
[2] = system: SKBr3 (estrogen receptor negative, Her2 over-expressing breast cancer cells); assay: Anti-proliferation assay (MTS/PMS, 72 h), SKBr3
[3] = system: SKBr3 and MCF-7 cell lines; assay: Anti-proliferative activity against both breast cancer cell lines (results in words); conditions: for anti-proliferative activity (in words): SKBr3 and MCF-7, Tables 1-5
Protocol: (§1) Cells were maintained in a 1:1 mixture of Advanced DMEM/F12 (Gibco) supplemented with non-essential amino acids, L-glutamine (2 mM), streptomycin (500 μg/mL), penicillin (100 units/mL), and 10% FBS. Cells were grown to confluence in a humidified atmosphere (37° C., 5% CO2), seeded (2000/well, 100 μL) in 96-well plates, and allowed to attach overnight. Compound at varying concentrations in DMSO (1% DMSO final concentration) was added, and cells were returned to the incubator for 72 h. At 72 h, the number of viable cells was determined using an MTS/PMS cell proliferation kit (Promega) per the manufacturer's instructions. Cells incubated in 1% DMSO were used at 100% proliferation, and values were adjusted accordingly. IC50 values were calculated from separate experiments performed in triplicate using GraphPad Prism.
The anti-proliferative activity of these compounds is evaluated against two breast cancer cell lines, SKBr3 (estrogen receptor negative, Her2 over-expressing breast cancer cells) and MCF-7 (estrogen receptor positive breast cancer cells).

MDAMB231 = assay: Anti-proliferation assay, MDAMB231; conditions: Table 9, non-aryl ureas; Tri-Neg
Procedure, shortened: (§2)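 Seeding density 2000 cells/well; 72 h treatment at varying concentrations, DMSO held at 1%. Viability determined by MTS/PMS kit, with vehicle-treated cells defining full proliferation, and IC50 calculated across separate triplicate experiments.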

BCPAP = assay: Anti-proliferation assay, BCPAP; conditions: Table 9, non-aryl ureas; Thyroid
Protocol: as §1

PC-3 = assay: Anti-proliferation assay, PC-3; conditions: Table 9, non-aryl ureas; Prostate Cancer
Procedure, shortened: as §2

DRO81-1 = assay: Anti-proliferation assay, DRO81-1; conditions: Table 9, non-aryl ureas; Thyroid
Procedure, shortened: as §2

JMAR = assay: Anti-proliferation assay, JMAR; conditions: Table 9, non-aryl ureas; HSNCC
Procedure, shortened: as §2

MDA1986 = assay: Anti-proliferation assay, MDA1986; conditions: Table 9, non-aryl ureas; HSNCC
Procedure, shortened: as §2

HCT-116 = assay: Anti-proliferation assay, HCT-116; conditions: Table 9, non-aryl ureas
Procedure, shortened: as §2

A-549 = assay: Anti-proliferation assay, A-549; conditions: Table 9, non-aryl ureas
Procedure, shortened: as §2

[4] = Table 5, alkylether derivatives with cyclic N-substitutions, read-out: MCF-7
[5] = Table 5, alkylether derivatives with cyclic N-substitutions, read-out: SKBr3
[6] = Homo sapiens, MCF7, Table 5, alkylether derivatives with cyclic N-substitutions, read-out: MCF-7
[7] = Homo sapiens, SK-BR-3, Table 5, alkylether derivatives with cyclic N-substitutions, read-out: SKBr3
[8] = Table 9, non-aryl ureas, Breast Cancer, read-out: IC50 MCF-3
[9] = Table 9, non-aryl ureas, Breast Cancer, read-out: IC50 SKBr3

Compound | anti-proliferative activity (in words) [3] | IC50 (MDAMB231) [µM] | IC50 (BCPAP) [µM] | IC50 [1, 8] [µM] | IC50 (PC-3) [µM] | IC50 [2, 9] [µM] | IC50 (DRO81-1) [µM] | IC50 (JMAR) [µM] | IC50 (MDA1986) [µM] | IC50 (HCT-116) [µM] | IC50 (A-549) [µM] | also measured
CC(C)=CCc1cc(C(=O)Nc2cc3ccc(OCCCNCCO)c(C)c3oc2=O)ccc1O [Compound 68o] | retains activity | – | – | – | – | – | – | – | – | – | – | IC50 ([1]; Table 4, alkylamino analogues, read-out: MCF-7): 1.56 ± 0.09 µM; IC50 ([2]; Table 4, alkylamino analogues, read-out: SKBr3): 0.61 ± 0.06 µM
CC(C)=CCc1cc(C(=O)Nc2cc3ccc(OCCCNc4ccccc4)c(C)c3oc2=O)ccc1O [Compound 70c] | inactive | – | – | – | – | – | – | – | – | – | – | IC50 [1, 4]: > 50 µM; IC50 [2, 5]: > 50 µM
CC(C)=CCc1cc(C(=O)Nc2cc3ccc(OCCCN(C)c4ccccc4)c(C)c3oc2=O)ccc1O [Compound 70d] | inactive | – | – | – | – | – | – | – | – | – | – | IC50 [1, 4]: > 50 µM; IC50 [2, 5]: > 50 µM
CC(C)=CCc1cc(C(=O)Nc2cc3ccc(OCCCN(C)Cc4ccccc4)c(C)c3oc2=O)ccc1O [Compound 70h, N-(7-(3-(benzyl(methyl)amino)propoxy)-8-methyl-2-oxo-2H-chromen-3-yl)-4-hydroxy-3-(3-methylbut-2-en-1-yl)benzamide] | greatly decreased activity | – | – | – | – | – | – | – | – | – | – | IC50 [1, 6]: 11.5 ± 4.16 µM; IC50 [2, 7]: 10.7 ± 0.49 µM
CC(C)=CCc1cc(C(=O)Nc2cc3ccc(OCCCNC45CC6CC(CC(C6)C4)C5)c(C)c3oc2=O)ccc1O [Compound 70j, N-(7-(3-((3S,5S,7S)-adamantan-1-ylamino)propoxy)-8-methyl-2-oxo-2H-chromen-3-yl)-4-hydroxy-3-(3-methylbut-2-en-1-yl)benzamide] | good anti-proliferative activity | – | – | – | – | – | – | – | – | – | – | IC50 [1, 6]: 0.32 ± 0.03 µM; IC50 [2, 7]: 0.31 ± 0.04 µM
Cc1c(OC2CCN(C)CC2)ccc2cc(NC(=O)Nc3ccccc3)c(=O)oc12 [H, 1-(8-methyl-7-((1-methylpiperidin-4-yl)oxy)-2-oxo-2H-chromen-3-yl)-3-phenylurea] | – | – | – | – | – | – | – | – | – | – | – | IC50 ([1]; Homo sapiens, MCF7, amide versus urea linkage, read-out: IC50 for MCF-3): 0.89 µM; IC50 ([2]; Homo sapiens, SK-BR-3, amide versus urea linkage, read-out: IC50 for SKBr3): 0.77 µM; increase in inhibition, urea versus amide linkage ([3]; text b189, two breast cancer cell lines): ~15 fold
Cc1c(OC2CCN(C)CC2)ccc2cc(NC(=O)NC(C)(C)C)c(=O)oc12 [drawing 157] | – | 3.8 | 2.57 | 1.77 ± 0.26 | 4.54 ± 0.46 | 3.96 ± 0.14 | > 25 | 2.1 | 21.5 | 12.1 ± 0.61 | 4.85 ± 0.29 | –
Cc1c(OC2CCN(C)CC2)ccc2cc(NC(=O)N3CCN(C)CC3)c(=O)oc12 [drawing 158] | – | > 25 | > 25 | 32.1 ± 4.78 | 115 | > 50 | > 25 | > 25 | > 25 | > 100 | 18.3 ± 12 | –
Cc1c(OC2CCN(C)CC2)ccc2cc(NC(=O)NCc3ccccc3)c(=O)oc12 [drawing 159] | – | 7.9 | 0.045 | – | 0.87 ± 0.33 | – | 14.6 | > 25 | 14.4 | 0.66 ± 0.15 | 0.28 ± 0.03 | –
Cc1c(OC2CCN(C)CC2)ccc2cc(NC(=O)N(C)Cc3ccccc3)c(=O)oc12 [drawing 160] | – | > 25 | 0.0084 | – | 28.7 ± 24.6 | – | 19.5 | 7.5 | 13.4 | 183 | 138 | –
Cc1c(OC2CCN(C)CC2)ccc2cc(NC(=O)N(Cc3ccccc3)Cc3ccccc3)c(=O)oc12 [drawing 161] | – | 2.8 | 1.81 | 3.36 ± 0.16 | 1.27 ± 0.09 | 1.21 ± 0.02 | 1.9 | 0.7 | 3.65 | 5.95 ± 2.92 | 3.57 ± 0.55 | –
Cc1c(OC2CCN(C)CC2)ccc2cc(NC(=O)NC(c3ccccc3)c3ccccc3)c(=O)oc12 [drawing 162] | – | 4.3 | 5.76 | 0.54 ± 0.01 | 1.12 ± 0.05 | 0.49 ± 0.07 | 1.3 | 5.9 | 7.1 | 0.96 ± 0.16 | 0.87 ± 0.21 | –
